The text below walks through data of article PMC5605198, “MELK is not necessary for the proliferation of basal-like breast cancer cells” (eLife, 2017).

Where two headings read alike, the source gives them in different places.

Test [1] concerns the target T1, MELK (Homo sapiens, UniProt Q14680). In words: Z’-LYTE enzymatic assay. The class given is biochemical.
In a further test the target is CDK7 (Homo sapiens, UniProt P50613). In words: Adapta kinase assay. The note with it: Adapta assay at [ATP]=apparent Km; read-out: Biochemical IC50 CDK7.
Sequence of CDK7 (P50613 whole entry): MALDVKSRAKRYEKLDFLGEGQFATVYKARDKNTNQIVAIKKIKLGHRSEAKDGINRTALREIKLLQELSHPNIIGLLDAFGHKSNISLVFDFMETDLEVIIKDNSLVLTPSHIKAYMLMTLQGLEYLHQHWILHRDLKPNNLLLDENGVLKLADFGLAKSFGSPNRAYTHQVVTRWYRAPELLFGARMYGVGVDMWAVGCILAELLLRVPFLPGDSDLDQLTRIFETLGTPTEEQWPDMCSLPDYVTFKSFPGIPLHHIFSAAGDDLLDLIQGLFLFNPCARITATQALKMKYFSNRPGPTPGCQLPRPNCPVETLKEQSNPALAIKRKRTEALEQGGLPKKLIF
Sequence of CDK7 (P51946 whole entry partner): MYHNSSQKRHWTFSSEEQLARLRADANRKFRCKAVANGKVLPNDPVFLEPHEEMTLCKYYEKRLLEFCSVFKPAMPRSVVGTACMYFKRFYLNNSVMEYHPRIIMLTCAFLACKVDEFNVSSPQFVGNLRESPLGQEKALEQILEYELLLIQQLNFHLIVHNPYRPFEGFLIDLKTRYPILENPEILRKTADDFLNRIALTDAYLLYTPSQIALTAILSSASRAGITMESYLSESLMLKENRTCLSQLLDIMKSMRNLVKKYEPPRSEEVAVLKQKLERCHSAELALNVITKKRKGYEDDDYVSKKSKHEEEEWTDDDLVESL
Sequence of CDK7 (P51948 whole entry partner): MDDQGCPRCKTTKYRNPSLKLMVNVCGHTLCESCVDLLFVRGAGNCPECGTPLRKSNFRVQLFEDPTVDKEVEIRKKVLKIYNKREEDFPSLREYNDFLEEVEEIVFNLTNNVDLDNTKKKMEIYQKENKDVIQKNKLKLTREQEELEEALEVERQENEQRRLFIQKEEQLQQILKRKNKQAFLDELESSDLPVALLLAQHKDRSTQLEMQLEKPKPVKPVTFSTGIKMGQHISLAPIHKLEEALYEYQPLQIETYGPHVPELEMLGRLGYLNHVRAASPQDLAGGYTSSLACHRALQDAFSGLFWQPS
For a further test, the target named is 141 kinases. In words: ICKP panel radiometric kinase profiling (summary). The class given is biochemical. The settings on record: radioactive filter-binding assay; kinases inhibited more strongly than MELK in the ICKP panel; read-out: IC50 values of potential off-target kinases.
The next test concerns ERK1/2. Nature of the test: Cellular kinase engagement assay (KiNativ), ATP-biotin probe pull-down. The class given is cell-based. The note with it: MDA-MB-468 cells, with MG132, 1 hour. The source says: (§1) After confirming HTH-01-091 as a potent MELK inhibitor in biochemical assays, we next investigated whether HTH-01-091 engages MELK in cells. We performed a KiNativ assay to measure HTH-01-091 engagement with the ATP binding pocket of MELK, which would prevent active-site labeling from a lysine-reactive ATP-biotin probe ([Patricelli et al., 2007]). […] As a control, ERK1/2 pull-down was not affected by HTH-01-091 treatment, consistent with our profiling data showing no binding affinity of HTH-01-091 to ERK1/2 (Figure 2A, Figure 1—source data 1).
(§2) Figure 2. […] (A) Immunoblots analyzing the pull-down levels of MELK and ERK1/2 by ATP-biotin probes and streptavidin beads from MDA-MB-468 cells treated with different doses of HTH-01-091 and […] MG132 for 1 hour. […] See also Figure 2—figure supplement 1 for rescue experiments using carfilzomib and MLN4924. (C) 3-day antiproliferation assays of HTH-01-091 and other MELK inhibitors tested in MDA-MB-468 (basal) and ZR-75-1 (luminal) cells. Values represent two independent experimental mean ±SD. Error bars shorter than the height of the symbol are not drawn. […] Figure 2—figure supplement 1. […]
(§3) MDA-MB-468 cells on 10 cm plates were treated with HTH-01-091 at indicated concentrations and MG132 (10 μM) for an hour. […] The beads were boiled at 95°C for 10 min and analyzed by immunoblotting.

Test [2] deals with T1, MELK. The test is described as above. It counts as cell-based. The settings on record: MDA-MB-468 cells, different doses, with MG132, 1 hour.
Text: as §1, §2, §3

In test [3] the test system is select off-target kinases. In words: Off-target kinase inhibition (Z’-LYTE/Adapta), comparison. The class given is biochemical. The note with it: from Table 1 IC50 values.
The next test addresses MLK3 (Homo sapiens, UniProt Q16584). In words: ICKP radiometric kinase assay. It counts as biochemical. The note with it: read-out: % AR (% kinase activity remaining).
For test [4], the system named is WT and MELK−/− MDA-MB-468 cells. Nature of the test: 3-day proliferation assays comparing WT and MELK−/− cells. It counts as cell-based. The note with it: clone E9 vs clone C7. The source says:
We compared a WT clone (clone E9) and a MELK−/− clone (clone C7) with the parental cell line, and observed no significant difference in growth rate or cell cycle distribution (Figure 3A,B,C).
Figure 3. WT and MELK−/− MDA-MB-468 cells have similar growth rates, cell cycle distribution, and sensitivity to MELK inhibitors. (A) Immunoblots for MELK and GAPDH in WT (clone E9) and MELK−/− (clone C7) clones isolated from MDA-MB-468 cells transfected with sgMELK-3 and Cas9. See also Figure 3—figure supplements 1 and 2, and Figure 3—source data 1 for the details of the generation of MELK−/− clones. (B) 5-day proliferation curves comparing the growth rates of parental, WT, and MELK−/− MDA-MB-468 cells. Values represent two independent experimental mean ±SD. (C) Cell cycle analysis comparing WT and MELK−/− MDA-MB-468 cells. Values represent triplicate mean ±SD. […] Values represent duplicate mean ±SD. Error bars shorter than the height of the symbol are not drawn. Figure 3—source data 1. Genotype analysis of single cell clones selected from MDA-MB-468 cells transfected with Cas9/sgMELK-3. Figure 3—figure supplement 1. CRISPR/Cas9-mediated knockout of MELK in MDA-MB-468 cells. (A) Tracking of Indels by Decomposition (TIDE) analysis ([Brinkman et al., 2014]) of MDA-MB-468 cells transfected with Cas9/sgMELK-3 and enriched by the transfection marker OFP. […]

Test [5] addresses T1, MELK. The settings on record: ref Chung et al., 2012; cited from earlier work.
A further test relates to AMPK. In words: ICKP radiometric kinase assay. The settings on record: 1 μM.

T1 sequence (Q14680 whole entry): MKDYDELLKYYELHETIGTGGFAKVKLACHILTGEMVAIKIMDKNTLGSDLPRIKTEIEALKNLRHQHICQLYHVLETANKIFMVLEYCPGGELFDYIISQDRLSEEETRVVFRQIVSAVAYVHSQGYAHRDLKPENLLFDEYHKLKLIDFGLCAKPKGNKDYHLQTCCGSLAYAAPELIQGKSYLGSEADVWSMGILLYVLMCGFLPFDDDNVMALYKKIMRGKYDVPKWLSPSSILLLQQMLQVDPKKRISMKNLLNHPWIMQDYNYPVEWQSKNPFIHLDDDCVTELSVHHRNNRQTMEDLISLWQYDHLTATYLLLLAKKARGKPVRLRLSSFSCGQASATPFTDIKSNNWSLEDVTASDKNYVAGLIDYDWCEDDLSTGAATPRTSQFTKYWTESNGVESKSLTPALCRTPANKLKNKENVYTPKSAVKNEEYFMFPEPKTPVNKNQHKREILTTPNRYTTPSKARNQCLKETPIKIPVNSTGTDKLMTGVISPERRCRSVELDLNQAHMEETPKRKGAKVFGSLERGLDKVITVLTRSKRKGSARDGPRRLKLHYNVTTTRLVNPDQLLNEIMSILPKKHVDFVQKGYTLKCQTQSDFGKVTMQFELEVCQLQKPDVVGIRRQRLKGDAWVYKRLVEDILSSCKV
Sequence of MLK3 (Q16584 whole entry): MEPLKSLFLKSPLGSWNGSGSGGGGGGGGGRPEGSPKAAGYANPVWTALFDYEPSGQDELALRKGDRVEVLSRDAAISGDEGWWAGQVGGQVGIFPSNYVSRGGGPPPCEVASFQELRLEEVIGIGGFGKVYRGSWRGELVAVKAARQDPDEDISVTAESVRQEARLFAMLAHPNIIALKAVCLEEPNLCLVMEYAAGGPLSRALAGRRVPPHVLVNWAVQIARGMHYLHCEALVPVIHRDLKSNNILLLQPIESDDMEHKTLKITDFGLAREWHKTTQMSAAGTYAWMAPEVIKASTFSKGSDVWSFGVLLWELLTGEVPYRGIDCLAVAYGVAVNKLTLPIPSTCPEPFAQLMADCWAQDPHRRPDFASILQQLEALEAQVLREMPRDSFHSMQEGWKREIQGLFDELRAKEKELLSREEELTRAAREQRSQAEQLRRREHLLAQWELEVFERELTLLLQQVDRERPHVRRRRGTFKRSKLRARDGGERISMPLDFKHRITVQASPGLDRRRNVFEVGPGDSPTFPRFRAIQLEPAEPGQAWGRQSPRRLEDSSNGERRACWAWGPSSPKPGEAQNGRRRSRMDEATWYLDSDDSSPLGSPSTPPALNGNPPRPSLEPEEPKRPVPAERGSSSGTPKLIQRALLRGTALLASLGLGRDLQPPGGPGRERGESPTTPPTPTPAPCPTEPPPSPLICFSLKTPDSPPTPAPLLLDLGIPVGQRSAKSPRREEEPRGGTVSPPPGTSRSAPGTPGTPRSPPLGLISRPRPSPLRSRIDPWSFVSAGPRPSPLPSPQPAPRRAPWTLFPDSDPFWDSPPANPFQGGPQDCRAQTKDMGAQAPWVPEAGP

In the case of `CN(C)C[C@H]1CC[C@H](N2C(=O)NCc3cnc4ccc(-c5cc(Cl)c(O)c(Cl)c5)cc4c32)CC1` [HTH-01-091, 9-(3,5-dichloro-4-hydroxyphenyl)-1-(trans-4-((dimethylamino)methyl)cyclohexyl)-3,4-dihydropyrimido[5,4 c]quinolin-2(1H)-one], the IC50 on MELK [1] (Z’-LYTE assay at [ATP]=apparent Km, read-out: Biochemical IC50 MELK) is 10.5 nM; at MELK [1] (measured by Z’LYTE biochemical assay, class symbols in Figure 2C, read-out: Potency (MELK)), under 20 nM; on MELK [1] (note column of Table 3, read-out: Note: MELK IC50), 10.5 nM; on CDK7 it was 1230 nM; at 141 kinases, 42 to 109 nM. Also, the “ERK1/2 pull-down (control)” value in the test with ERK1/2 is listed as “not affected”. Moreover, the “MELK pull-down by streptavidin beads (ATP-biotin probe)” value on MELK [2] is “dose-dependently decreased MELK pull-down”. Moreover, the “reduced inhibition of the select off-target kinases compared with JW-7-25-1” value in test [3] is recorded as 20- to 140 fold. Further, the remaining activity at 1 µM at MLK3 amounted to 54%.

For the compound `CC(=O)c1cnc2ccc(-c3cc(Cl)c(O)c(Cl)c3)nc2c1N[C@H]1CC[C@H](CN(C)C)CC1` [OTSSP167], the “difference in sensitivity between WT and MELK−/− cells” value in [4] is “did not observe differences in cell viability”. Also, the “activity against MELK” value on MELK [5] is “subnanomolar”. The “% AR (% kinase activity remaining)” value with AMPK came to 2%.
